Data on four molecules can be found in ChEMBL document CHEMBL1129344, “Chemical synthesis of benzamide adenine dinucleotide: inhibition of inosine monophosphate dehydrogenase (types I and II)” (J Med Chem, 1996).

The species named for assay [1] is Homo sapiens. In words: Compound was evaluated for binding affinity by enzymatically to inhibit IMPDH. The class given is functional.
Assay [2] is filed under the species Homo sapiens. In words: Compound was evaluated for inhibition of inosine monophosphate dehydrogenase type-I. The class given is functional, organism-based.
For assay [3], the species on record is Homo sapiens. In words: Compound was evaluated for inhibition of inosine monophosphate dehydrogenase type-II. The class given is functional, organism-based.
Assay [4] is filed under the species Homo sapiens. As to the kind of experiment: Binding affinity towards less potent effect against alcohol dehydrogenase (ADH). Format: functional.
The species entered for assay [5] is Homo sapiens. As to the kind of experiment: Compound was evaluated for inhibitory concentration of inosine monophosphate dehydrogenase. The class given is functional, organism-based.
Assay [6] is filed under the species Homo sapiens. As to the kind of experiment: Compound was evaluated for inhibitory concentration potent against IMPDH type-I. The class given is functional, organism-based.
The species entered for assay [7] is Homo sapiens. As to the kind of experiment: Compound was evaluated for inhibitory concentration potent against IMPDH type-II. Format: functional, organism-based.

With `NC(=O)c1cccc([C@@H]2O[C@H](CO)[C@@H](O)[C@H]2O)c1`, the affinity in the assay listed under Homo sapiens [1] corresponds to a Ki of 118 nM. Further, the IC50 – broadly, the point on the concentration scale where inhibition reaches its midpoint – in the assay listed under Homo sapiens [2] stood at 780 nM; in the assay filed under Homo sapiens [3], 880 nM.

With `NC(=O)c1cccc([C@@H]2O[C@H](CO)[C@@H](O)[C@H]2O)n1`, the affinity in the assay filed under Homo sapiens [4] corresponds to a Ki of 20 nM. The molecule further came in with an IC50 in the assay listed under Homo sapiens [5] of 26 µM.

With `NC(=O)c1cncc([C@@H]2O[C@H](CO)[C@@H](O)[C@H]2O)c1`, the IC50 in the assay listed under Homo sapiens [5] was determined as 7 µM.

Regarding `NC(=O)c1csc([C@@H]2O[C@H](CO)[C@@H](O)[C@H]2O)n1` [TIAZOFURIN], the IC50 is 94 nM in the assay listed under Homo sapiens [6] and 101 nM in the assay filed under Homo sapiens [7].
